# Data reported in US12263172B2, “Toll-like receptor agonists for use in the treatment of hepatitis b” (priority 2019, dated 2025).
# Assay: Phase 1 single-ascending dose (Part 1): safety and tolerability in healthy adults
# Assay type: in vivo, human
# Protocol: This ongoing trial is a Phase 1 randomized, double-blind, placebo-controlled study in male and female healthy adult volunteers aged 18-55 years. All volunteers provided written, informed consent.
# All volunteers were followed up for 4 weeks and safety and tolerability were continuously assessed throughout the study. All adverse events (AEs) were recorded from the time of consent to the completion visit and were graded using the DAIDS toxicity grading scale. Volunteers also underwent physical examinations, electrocardiograms, vital sign checks and clinical laboratory parameters (chemistry, haematology, urinalysis).
# [1] = 1.8 mg and 1.25 mg fasted pooled
smiles,measurement,setting,value
CCCCOc1nc(N)c2[nH]cc(Cc3ccc(CN4CCCC4)cc3)c2n1 [Compound 4],time within which fever and flu-like symptoms resolved,1.25 mg and 1.8 mg fasted,24 to 48 h
same,time within which low lymphocyte count resolved,1.25 mg fasted and 1.8 mg,≤ 72 h
same,subjects with treatment-related headache overall,[1],5 subjects
same,subjects with treatment-related pyrexia overall,[1],5 subjects
same,subjects with treatment-related pyrexia grade 1,"Part 1, all single doses",3 subjects
same,subjects with treatment-related pyrexia grade 2,"Part 1, all single doses",2 subjects
same,"deaths, other SAEs, or AEs of at least grade 3",Part 1 and Part 2,"no deaths, other SAEs, or AEs of at least grade 3 occurred"
same,serious AEs or dose-limiting toxicities,all tested single doses,no serious AEs or dose-limiting toxicities
same,Any AE (treatment-emergent),single dose 0.2 mg fasted,4 (67) n (%)
same,Back pain Grade 1 (treatment-emergent AE),single dose 0.2 mg fasted,0 n (%)
same,Chills Grade 1 (treatment-emergent AE),single dose 0.2 mg fasted,0 n (%)
same,Contact dermatitis Grade 1 (treatment-emergent AE),single dose 0.2 mg fasted,2 (33) n (%)
same,Dizziness Grade 1 (treatment-emergent AE),single dose 0.2 mg fasted,1 (17) n (%)
same,ECG actual value: Heart rate (bpm) Low,single dose 0.2 mg fasted,1 (16.7%) n (%)
same,ECG actual value: QRS (ms) High,single dose 0.2 mg fasted,0 n (%)
same,ECG actual value: QTcB (ms) ]450; 480],single dose 0.2 mg fasted,0 n (%)
same,ECG actual value: QTcF (ms) ]450; 480],single dose 0.2 mg fasted,0 n (%)
same,ECG change from reference: QTcB (ms) [30; 60],single dose 0.2 mg fasted,0 n (%)
same,ECG change from reference: QTcF (ms) [30; 60],single dose 0.2 mg fasted,0 n (%)
same,Headache Grade 1 (treatment-emergent AE),single dose 0.2 mg fasted,1 (17) n (%)
same,Headache Grade 2 (treatment-emergent AE),single dose 0.2 mg fasted,0 n (%)
same,Hypertension Grade 1 (treatment-emergent AE),single dose 0.2 mg fasted,0 n (%)
same,Hypertension Grade 2 (treatment-emergent AE),single dose 0.2 mg fasted,0 n (%)
same,Myalgia Grade 1 (treatment-emergent AE),single dose 0.2 mg fasted,0 n (%)
same,Oropharyngeal pain Grade 1 (treatment-emergent AE),single dose 0.2 mg fasted,0 n (%)
same,Pyrexia Grade 1 (treatment-emergent AE),single dose 0.2 mg fasted,0 n (%)
same,Pyrexia Grade 2 (treatment-emergent AE),single dose 0.2 mg fasted,0 n (%)
same,URTI Grade 1 (treatment-emergent AE),single dose 0.2 mg fasted,0 n (%)
same,"lab toxicity: Amylase (U/L), upwards, Grade 1",single dose 0.2 mg fasted,0 n (%)
same,"lab toxicity: Amylase (U/L), upwards, Grade 2",single dose 0.2 mg fasted,1 (16.7%) n (%)
same,"lab toxicity: Cholesterol (mmol/L), upwards, Grade 1",single dose 0.2 mg fasted,0 n (%)
same,"lab toxicity: Cholesterol (mmol/L), upwards, Grade 2",single dose 0.2 mg fasted,1 (16.7%) n (%)
same,"lab toxicity: Creatine kinase (U/L), upwards, Grade 1",single dose 0.2 mg fasted,3 (50.0%) n (%)
same,"lab toxicity: Creatine kinase (U/L), upwards, Grade 2",single dose 0.2 mg fasted,0 n (%)
same,"lab toxicity: Creatine kinase (U/L), upwards, Grade 4",single dose 0.2 mg fasted,0 n (%)
same,"lab toxicity: Glucose (mmol/L), upwards, Grade 1",single dose 0.2 mg fasted,1 (16.7%) n (%)
same,"lab toxicity: Glucose (mmol/L), upwards, Grade 2",single dose 0.2 mg fasted,0 n (%)
same,"lab toxicity: LDL cholesterol (mmol/L, calculated), upwards, Grade 1",single dose 0.2 mg fasted,1 (16.7%) n (%)
same,"lab toxicity: LDL cholesterol (mmol/L, calculated), upwards, Grade 2",single dose 0.2 mg fasted,1 (16.7%) n (%)
same,"lab toxicity: LDL cholesterol (mmol/L, calculated), upwards, Grade 3",single dose 0.2 mg fasted,0 n (%)
same,"lab toxicity: Lymphocytes (giga/L), downwards, Grade 2",single dose 0.2 mg fasted,0 n (%)
same,"lab toxicity: Lymphocytes (giga/L), downwards, Grade 4",single dose 0.2 mg fasted,0 n (%)
same,"lab toxicity: Neutrophils, segmented (giga/L), downwards, Grade 1",single dose 0.2 mg fasted,0 n (%)
same,"lab toxicity: Neutrophils, segmented (giga/L), downwards, Grade 2",single dose 0.2 mg fasted,0 n (%)
same,"lab toxicity: Platelets (giga/L), downwards, Grade 1",single dose 0.2 mg fasted,0 n (%)
same,"lab toxicity: Sodium (mmol/L), upwards, Grade 1",single dose 0.2 mg fasted,0 n (%)
same,"lab toxicity: Sodium (mmol/L), upwards, Grade 2",single dose 0.2 mg fasted,0 n (%)
same,"lab toxicity: Triglycerides (mmol/L), upwards, Grade 1",single dose 0.2 mg fasted,1 (16.7%) n (%)
same,"lab toxicity: Triglycerides (mmol/L), upwards, Grade 2",single dose 0.2 mg fasted,2 (33.3%) n (%)
same,"lab toxicity: Triglycerides (mmol/L), upwards, Grade 3",single dose 0.2 mg fasted,0 n (%)
same,"lab toxicity: Urate (μmol/L), upwards, Grade 1",single dose 0.2 mg fasted,2 (33.3%) n (%)
same,subjects with at least one AE for which any study drug or study was permanently stopped,single dose 0.2 mg fasted,0 n (%)
same,subjects with at least one AE for which any study drug or study was temporarily stopped,single dose 0.2 mg fasted,0 n (%)
same,subjects with at least one AE possibly related to any study drug,single dose 0.2 mg fasted,0 n (%)
same,"subjects with at least one AE possibly, probably or very likely related to any study drug",single dose 0.2 mg fasted,0 n (%)
same,subjects with at least one AE probably related to any study drug,single dose 0.2 mg fasted,0 n (%)
same,subjects with at least one AE very likely related to any study drug,single dose 0.2 mg fasted,0 n (%)
same,subjects with at least one SAE,single dose 0.2 mg fasted,0 n (%)
same,subjects with at least one fatal AE,single dose 0.2 mg fasted,0 n (%)
same,subjects with at least one grade 1 AE,single dose 0.2 mg fasted,4 (66.7%) n (%)
same,subjects with at least one grade 2 AE,single dose 0.2 mg fasted,0 n (%)
same,subjects with at least one grade 3 or 4 AE,single dose 0.2 mg fasted,0 n (%)
same,subjects with low hematocrit levels (non-graded),single dose 0.2 mg fasted,5 (83.3%) n (%)
same,treatment-related AE: Any AE,single dose 0.2 mg fasted,0 n (%)
same,treatment-related AE: Chills,single dose 0.2 mg fasted,0 n (%)
same,treatment-related AE: Dizziness,single dose 0.2 mg fasted,0 n (%)
same,treatment-related AE: General disorders and administration site conditions,single dose 0.2 mg fasted,0 n (%)
same,treatment-related AE: Headache,single dose 0.2 mg fasted,0 n (%)
same,treatment-related AE: Hypertension,single dose 0.2 mg fasted,0 n (%)
same,treatment-related AE: Myalgia,single dose 0.2 mg fasted,0 n (%)
same,treatment-related AE: Nervous system disorders,single dose 0.2 mg fasted,0 n (%)
same,treatment-related AE: Oropharyngeal pain,single dose 0.2 mg fasted,0 n (%)
same,treatment-related AE: Pyrexia,single dose 0.2 mg fasted,0 n (%)
same,"treatment-related AE: Respiratory, thoracic and mediastinal disorders",single dose 0.2 mg fasted,0 n (%)
same,treatment-related AE: Vascular disorder,single dose 0.2 mg fasted,0 n (%)
same,vital signs: Respiratory rate (brpm) Grade 1,single dose 0.2 mg fasted,3 (50.0%) n (%)
same,vital signs: Respiratory rate (brpm) Grade 2,single dose 0.2 mg fasted,0 n (%)
same,vital signs: SaO2 (%) 90% to <95%,single dose 0.2 mg fasted,1 (16.7%) n (%)
same,vital signs: SaO2 (%) 95% to <98%,single dose 0.2 mg fasted,4 (66.7%) n (%)
same,vital signs: Standing DBP (mmHg) Grade 1,single dose 0.2 mg fasted,2 (33.3%) n (%)
same,vital signs: Standing DBP (mmHg) Grade 2,single dose 0.2 mg fasted,0 n (%)
same,vital signs: Standing DBP (mmHg) Grade 3,single dose 0.2 mg fasted,0 n (%)
same,vital signs: Standing DBP (mmHg) Low,single dose 0.2 mg fasted,0 n (%)
same,vital signs: Standing SBP (mmHg) Grade 1,single dose 0.2 mg fasted,3 (50.0%) n (%)
same,vital signs: Standing SBP (mmHg) Low,single dose 0.2 mg fasted,0 n (%)
same,vital signs: Standing pulse (bpm) High,single dose 0.2 mg fasted,3 (50.0%) n (%)
same,vital signs: Standing pulse (bpm) Low,single dose 0.2 mg fasted,0 n (%)
same,vital signs: Supine DBP (mmHg) Grade 1,single dose 0.2 mg fasted,0 n (%)
same,vital signs: Supine DBP (mmHg) Low,single dose 0.2 mg fasted,0 n (%)
same,vital signs: Supine SBP (mmHg) Grade 1,single dose 0.2 mg fasted,0 n (%)
same,vital signs: Supine SBP (mmHg) Grade 2,single dose 0.2 mg fasted,0 n (%)
same,vital signs: Supine SBP (mmHg) Low,single dose 0.2 mg fasted,1 (16.7%) n (%)
same,vital signs: Supine pulse (bpm) Low,single dose 0.2 mg fasted,2 (33.3%) n (%)
same,↑ AST Grade 3 (laboratory abnormality),single dose 0.2 mg fasted,0 n (%)
same,↑ Amylase Grade 2 (laboratory abnormality),single dose 0.2 mg fasted,1 (17) n (%)
same,↑ Cholesterol Grade 2 (laboratory abnormality),single dose 0.2 mg fasted,1 (17) n (%)
same,↑ Creatine kinase Grade 2 (laboratory abnormality),single dose 0.2 mg fasted,0 n (%)
same,↑ Creatine kinase Grade 4 (laboratory abnormality),single dose 0.2 mg fasted,0 n (%)
same,↑ Glucose Grade 2 (laboratory abnormality),single dose 0.2 mg fasted,0 n (%)
same,↑ LDL cholesterol Grade 2 (laboratory abnormality),single dose 0.2 mg fasted,1 (17) n (%)
same,↑ LDL cholesterol Grade 3 (laboratory abnormality),single dose 0.2 mg fasted,0 n (%)
same,↑ Lipase Grade 2 (laboratory abnormality),single dose 0.2 mg fasted,0 n (%)
same,↑ Pancreatic amylase Grade 2 (laboratory abnormality),single dose 0.2 mg fasted,0 n (%)
same,↑ Potassium Grade 2 (laboratory abnormality),single dose 0.2 mg fasted,0 n (%)
same,↑ Sodium Grade 2 (laboratory abnormality),single dose 0.2 mg fasted,0 n (%)
same,↑ Triglycerides Grade 2 (laboratory abnormality),single dose 0.2 mg fasted,2 (33) n (%)
same,↑ Triglycerides Grade 3 (laboratory abnormality),single dose 0.2 mg fasted,0 n (%)
same,↓ Bicarbonate Grade 2 (laboratory abnormality),single dose 0.2 mg fasted,1 (17) n (%)
same,↓ GFR Grade 2 (laboratory abnormality),single dose 0.2 mg fasted,0 n (%)
same,↓ Lymphocytes Grade 2 (laboratory abnormality),single dose 0.2 mg fasted,0 n (%)
same,↓ Lymphocytes Grade 4 (laboratory abnormality),single dose 0.2 mg fasted,0 n (%)
same,↓ Neutrophils Grade 2 (laboratory abnormality),single dose 0.2 mg fasted,0 n (%)
same,↓ Phosphate Grade 2 (laboratory abnormality),single dose 0.2 mg fasted,0 n (%)
same,Any AE (treatment-emergent),single dose 0.6 mg fasted,3 (50) n (%)
same,Back pain Grade 1 (treatment-emergent AE),single dose 0.6 mg fasted,0 n (%)
same,Chills Grade 1 (treatment-emergent AE),single dose 0.6 mg fasted,0 n (%)
same,Contact dermatitis Grade 1 (treatment-emergent AE),single dose 0.6 mg fasted,0 n (%)
same,Dizziness Grade 1 (treatment-emergent AE),single dose 0.6 mg fasted,0 n (%)
same,ECG actual value: Heart rate (bpm) Low,single dose 0.6 mg fasted,0 n (%)
same,ECG actual value: QRS (ms) High,single dose 0.6 mg fasted,0 n (%)
same,ECG actual value: QTcB (ms) ]450; 480],single dose 0.6 mg fasted,0 n (%)
same,ECG actual value: QTcF (ms) ]450; 480],single dose 0.6 mg fasted,0 n (%)
same,ECG change from reference: QTcB (ms) [30; 60],single dose 0.6 mg fasted,3 (50.0%) n (%)
same,ECG change from reference: QTcF (ms) [30; 60],single dose 0.6 mg fasted,0 n (%)
same,Headache Grade 1 (treatment-emergent AE),single dose 0.6 mg fasted,0 n (%)
same,Headache Grade 2 (treatment-emergent AE),single dose 0.6 mg fasted,0 n (%)
same,Hypertension Grade 1 (treatment-emergent AE),single dose 0.6 mg fasted,0 n (%)
same,Hypertension Grade 2 (treatment-emergent AE),single dose 0.6 mg fasted,0 n (%)
same,Myalgia Grade 1 (treatment-emergent AE),single dose 0.6 mg fasted,0 n (%)
same,Oropharyngeal pain Grade 1 (treatment-emergent AE),single dose 0.6 mg fasted,1 (17) n (%)
same,Pyrexia Grade 1 (treatment-emergent AE),single dose 0.6 mg fasted,0 n (%)
same,Pyrexia Grade 2 (treatment-emergent AE),single dose 0.6 mg fasted,0 n (%)
same,URTI Grade 1 (treatment-emergent AE),single dose 0.6 mg fasted,0 n (%)
same,"lab toxicity: Amylase (U/L), upwards, Grade 1",single dose 0.6 mg fasted,0 n (%)
same,"lab toxicity: Amylase (U/L), upwards, Grade 2",single dose 0.6 mg fasted,0 n (%)
same,"lab toxicity: Cholesterol (mmol/L), upwards, Grade 1",single dose 0.6 mg fasted,2 (33.3%) n (%)
